# Data taken from article PMC12354831 (Cell Death Discovery, 2025).
# Target: T1, GLUT3 N413A (Homo sapiens, UniProt P11169, N413A)
# T1 construct: expressed in transfected cells; host or cells: U87 and U343 per methods
# T1 sequence (P11169 1-496 N413A): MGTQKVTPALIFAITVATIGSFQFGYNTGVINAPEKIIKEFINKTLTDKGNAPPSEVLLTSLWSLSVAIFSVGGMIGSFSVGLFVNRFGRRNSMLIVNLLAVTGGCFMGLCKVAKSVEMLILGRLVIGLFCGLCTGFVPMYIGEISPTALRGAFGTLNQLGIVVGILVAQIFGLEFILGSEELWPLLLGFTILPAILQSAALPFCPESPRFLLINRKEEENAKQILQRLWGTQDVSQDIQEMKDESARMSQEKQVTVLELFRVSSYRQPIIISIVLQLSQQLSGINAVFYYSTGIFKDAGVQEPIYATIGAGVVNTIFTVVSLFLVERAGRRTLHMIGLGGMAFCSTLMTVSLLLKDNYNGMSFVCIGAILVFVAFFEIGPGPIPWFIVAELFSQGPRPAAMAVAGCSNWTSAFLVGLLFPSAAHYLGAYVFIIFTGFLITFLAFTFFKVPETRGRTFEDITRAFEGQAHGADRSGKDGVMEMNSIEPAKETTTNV
# Assay: TMZ uptake by U251-MG cells stably expressing GLUT3 N413A vs WT GLUT3 (LC-MS/MS)
# Type: in vitro ADME
# Description: A total of 6 × 10^6 cells were seeded into each well of a 6 cm Petri dish and cultured at 37 °C in a humidified atmosphere containing 5% CO2 for 8 h. The cells were then washed twice with PBS (137 mM NaCl, 2.7 mM KCl, 10 mM Na2HPO4, 1.8 mM KH2PO4, pH 7.4) and incubated in transport buffer (140 mM NaCl, 5 mM KCl, 2 mM MgCl2, 2 mM CaCl2, 30 mM Tris-HCl, pH 7.4) for 15 min at 37 °C. […] Cell supernatants were collected and stored at 4 °C for subsequent extraction. The harvested cells were washed three times with PBS and extracted with 500 µL of 80% methanol for 30 min at −80 °C. The cell lysate was then centrifuged at 14,000 × g for 5 min at 4 °C, followed by 2 min of sonication. The supernatant was transferred to a new centrifuge tube. For LC-MS/MS analysis, the cell supernatants and cell lysates were diluted at a specific ratio. A total of 100 µL of each sample was mixed with 100 µL of acetonitrile (or standard reagent) and 300 µL of internal standard solution (^2H3-TMZ 100 ng/mL and ^2H11-CAPE 20 ng/mL dissolved in acetonitrile). […] Quality control (QC) samples were prepared and analyzed alongside the experimental samples to monitor the stability and repeatability of the instrument. QC samples were inserted regularly and analyzed every 6–12 samples. Each experiment was repeated 5–6 times. […]
structure (smiles),measurement,value
Cn1nnc2c(C(N)=O)ncn2c1=O [TMZ],reduction in drug uptake,40–50%
